Patent US9670227B2, “Thienopyrimidine derivatives, a process for their preparation and pharmaceutical compositions containing them” (LES LABORATOIRES SERVIER, priority 2013, dated 2017)
Like-named read-outs stand apart in the source and are kept apart here.

Key:
Mcl-1 protein = Mcl-1 protein (UniProtKB primary accession number: Q07820) (Homo sapiens, UniProt Q07820); assay: Inhibition of Mcl-1 by fluorescence polarisation, Method 1; type: binding; details: read-out: IC50 (M) Mcl-1 FP
Summary of the method: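 Binding was measured as fluorescence polarisation of a fluorescein-labelled ligand (1 nM) displaced from Mcl-1 (5 nM), both final. Compounds ran as 11-point series with final DMSO at 5%.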

[1] = tested on: H929 multiple myeloma tumour line; assay: In vitro cytotoxicity, Microculture Tetrazolium Assay; type: cell-based; details: Homo sapiens, NCI-H929, 48 h, H929 cells, 48 hours exposure, read-out: IC50 (μM) MTT H929
Protocol: The cytotoxicity studies were carried out on the H929 multiple myeloma tumour line.
The cells are distributed onto microplates and exposed to the test compounds for 48 hours.

[2] = fluorescence polarisation, Method 1, or Method 2
[3] = fluorescence polarisation test, Method 1, or Method 2 where the value is underlined (underlining not visible)

Mcl-1 protein, sequence (Q07820 whole entry): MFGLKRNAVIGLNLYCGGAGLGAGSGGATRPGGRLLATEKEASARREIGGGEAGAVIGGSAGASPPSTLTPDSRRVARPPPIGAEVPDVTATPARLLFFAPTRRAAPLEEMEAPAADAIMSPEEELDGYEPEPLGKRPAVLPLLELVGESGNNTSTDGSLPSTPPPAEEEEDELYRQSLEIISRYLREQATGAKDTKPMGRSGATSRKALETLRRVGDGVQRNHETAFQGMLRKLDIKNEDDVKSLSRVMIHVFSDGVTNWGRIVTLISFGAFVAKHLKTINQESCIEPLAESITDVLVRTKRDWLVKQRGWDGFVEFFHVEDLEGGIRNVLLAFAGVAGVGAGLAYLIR

| Structure (SMILES) | IC50 (Mcl-1 protein; [2]) [M] | IC50 (Mcl-1 protein; [3]) [M] | IC50 ([1]; MTT) [µM] | IC50 ([1]; cell viability) [µM] |
| --- | --- | --- | --- | --- |
| COc1ccccc1-c1nccc(COc2ccccc2CC(Oc2ncnc3sc(-c4ccc(OCc5cccc(C)c5)cc4)c(-c4ccc(OCCN5CCN(C)CC5)c(Cl)c4C)c23)C(=O)O)n1 [Example 773, (2R)-2-[((5Sa)-5-{3-chloro-2-methyl-4-[2-(4-methylpiperazin-1-yl)ethoxy]phenyl}-6-{4-[(3-methylbenzyl)oxy]phenyl}thieno[2,3-d]pyrimidin-4-yl)oxy]-3-(2-{[2-(2-methoxyphenyl)pyrimidin-4-yl]methoxy}phenyl)propanoic acid] | 1.25e-09 | – | 0.017 | – |
| COc1ccccc1-c1nccc(COc2ccccc2CC(Oc2ncnc3sc(-c4ccc(OCc5ccc(Cl)cc5)cc4)c(-c4ccc(OCCN5CCN(C)CC5)c(Cl)c4C)c23)C(=O)O)n1 [Example 775, (2R)-2-[(6-{4-[(4-chlorobenzyl)oxy]phenyl}-(5Sa)-5-{3-chloro-2-methyl-4-[2-(4-methylpiperazin-1-yl)ethoxy]phenyl}thieno[2,3-d]pyrimidin-4-yl)oxy]-3-(2-{[2-(2-methoxyphenyl)pyrimidin-4-yl]methoxy}phenyl)propanoic acid] | 3.55e-09 | – | 0.039 | – |
| COc1ccccc1-c1nccc(COc2ccccc2CC(Oc2ncnc3sc(-c4ccc(OCc5ccn(C)n5)cc4)c(-c4ccc(OCCN5CCN(C)CC5)c(Cl)c4C)c23)C(=O)O)n1 [Example 776, (2R)-2-[((5Sa)-5-{3-chloro-2-methyl-4-[2-(4-methylpiperazin-1-yl)ethoxy]phenyl}-6-{4-[(1-methyl-1H-pyrazol-3-yl)methoxy]phenyl}thieno[2,3-d]pyrimidin-4-yl)oxy]-3-(2-{[2-(2-methoxyphenyl)pyrimidin-4-yl]methoxy}phenyl)propanoic acid] | 9.48e-10 | – | 0.007 | – |
| COCC#Cc1sc2ncnc(OC(Cc3ccccc3OCc3ccnc(-c4ccccc4OC)n3)C(=O)O)c2c1-c1ccc(OCCN2CCN(C)CC2)c(Cl)c1C [Example 784, (2R)-2-{[(5Sa)-5-{3-chloro-2-methyl-4-[2-(4-methylpiperazin-1-yl)ethoxy]phenyl}-6-(3-methoxyprop-1-yn-1-yl)thieno[2,3-d]pyrimidin-4-yl]oxy}-3-(2-{[2-(2-methoxyphenyl)pyrimidin-4-yl]methoxy}phenyl)propanoic acid] | 9.48e-10 | – | 0.023 | – |
| COc1ccccc1-c1nccc(COc2ccccc2CC(Oc2ncnc3sc(-c4ccc(F)cc4)c(-c4ccc(OCCN5CCN(C)CC5)c(Cl)c4C)c23)C(=O)Oc2ccc3c(c2)CCC3)n1 [Example 809, 2,3-dihydro-1H-inden-5-yl (2R)-2-{[(5Sa)-5-{3-chloro-2-methyl-4-[2-(4-methylpiperazin-1-yl)ethoxy]phenyl}-6-(4-fluorophenyl)thieno[2,3-d]pyrimidin-4-yl]oxy}-3-(2-{[2-(2-methoxyphenyl)pyrimidin-4-yl]methoxy}phenyl)propanoate] | – | 6.91e-07 | – | 0.047 |
| COc1ccccc1-c1nccc(COc2ccccc2CC(Oc2ncnc3sc(-c4ccc(F)cc4)c(-c4ccc(OCCN5CCN(C)CC5)c(Cl)c4C)c23)C(=O)OCCN(C)C)n1 [Example 813, 2-(dimethylamino)ethyl (2R)-2-{[(5Sa)-5-{3-chloro-2-methyl-4-[2-(4-methylpiperazin-1-yl)ethoxy]phenyl}-6-(4-fluorophenyl)thieno[2,3-d]pyrimidin-4-yl]oxy}-3-(2-{[2-(2-methoxyphenyl)pyrimidin-4-yl]methoxy}phenyl)propanoate] | – | 5.47e-09 | – | 0.011 |
| COc1ccccc1-c1nccc(COc2ccccc2CC(Oc2ncnc3sc(-c4cccc(F)c4)c(-c4ccc(OCCN5CCN(C)CC5)c(Cl)c4C)c23)C(=O)O)n1 [Example 836, (2R)-2-{[(5Sa)-5-{3-chloro-2-methyl-4-[2-(4-methylpiperazin-1-yl)ethoxy]phenyl}-6-(3-fluorophenyl)thieno[2,3-d]pyrimidin-4-yl]oxy}-3-(2-{[2-(2-methoxyphenyl)pyrimidin-4-yl]methoxy}phenyl)propanoic acid] | – | 2.8e-09 | – | 0.002 |
| COc1ccccc1-c1nccc(COc2ccccc2C[C@@H](Oc2ncnc3sc(-c4ccc(F)cc4)c(-c4ccc(OCCN5CCN(C)CC5)c(Cl)c4OC)c23)C(=O)O)n1 [Example 837, (2R)-2-{[5-{3-chloro-2-methoxy-4-[2-(4-methylpiperazin-1-yl)ethoxy]phenyl}-6-(4-fluorophenyl)thieno[2,3-d]pyrimidin-4-yl]oxy}-3-(2-{[2-(2-methoxyphenyl)pyrimidin-4-yl]methoxy}phenyl)propanoic acid] | – | 2.35e-09 | – | 0.003 |

Now from value to compound, other results behind:

| IC50 (Mcl-1 protein; [2]) [M] | IC50 (Mcl-1 protein; [3]) [M] | Structure (SMILES) | IC50 ([1]; MTT) [µM] | IC50 ([1]; cell viability) [µM] |
| --- | --- | --- | --- | --- |
| 1.12e-09 | – | COc1ccccc1-c1nccc(COc2ccccc2CC(Oc2ncnc3sc(-c4ccc(OCc5cccs5)cc4)c(-c4ccc(OCCN5CCN(C)CC5)c(Cl)c4C)c23)C(=O)O)n1 [Example 777, (2R)-2-[((5Sa)-5-{3-chloro-2-methyl-4-[2-(4-methylpiperazin-1-yl)ethoxy]phenyl}-6-[4-(thiophen-2-ylmethoxy)phenyl]thieno[2,3-d]pyrimidin-4-yl)oxy]-3-(2-{[2-(2-methoxyphenyl)pyrimidin-4-yl]methoxy}phenyl)propanoic acid] | 0.008 | – |
| 1.09e-09 | – | COc1ccccc1-c1nccc(COc2ccccc2CC(Oc2ncnc3sc(-c4ccc(OCc5ccsc5)cc4)c(-c4ccc(OCCN5CCN(C)CC5)c(Cl)c4C)c23)C(=O)O)n1 [Example 778, (2R)-2-[((5Sa)-5-{3-chloro-2-methyl-4-[2-(4-methylpiperazin-1-yl)ethoxy]phenyl}-6-[4-(thiophen-3-ylmethoxy)phenyl]thieno[2,3-d]pyrimidin-4-yl)oxy]-3-(2-{[2-(2-methoxyphenyl)pyrimidin-4-yl]methoxy}phenyl)propanoic acid] | 0.013 | – |
| 1.86e-09 | – | Cc1c(-c2c(-c3ccc(OCc4ccn(C)n4)cc3)sc3ncnc(OC(Cc4ccccc4OCc4ccnn4CC(F)(F)F)C(=O)O)c23)ccc(OCCN2CCN(C)CC2)c1Cl [Example 779, (2R)-2-[((5Sa)-5-{3-chloro-2-methyl-4-[2-(4-methylpiperazin-1-yl)ethoxy]phenyl}-6-{4-[(1-methyl-1H-pyrazol-3-yl)methoxy]phenyl}thieno[2,3-d]pyrimidin-4-yl)oxy]-3-(2-{[1-(2,2,2-trifluoroethyl)-1H-pyrazol-5-yl]methoxy}phenyl)propanoic acid] | 0.056 | – |
| 1.68e-09 | – | COc1ccccc1-c1nccc(COc2ccccc2CC(Oc2ncnc3sc(C#CCOc4ccccc4)c(-c4ccc(OCCN5CCN(C)CC5)c(Cl)c4C)c23)C(=O)O)n1 [Example 782, (2R)-2-{[(5Sa)-5-{3-chloro-2-methyl-4-[2-(4-methylpiperazin-1-yl)ethoxy]phenyl}-6-(3-phenoxyprop-1-yn-1-yl)thieno[2,3-d]pyrimidin-4-yl]oxy}-3-(2-{[2-(2-methoxyphenyl)pyrimidin-4-yl]methoxy}phenyl)propanoic acid] | 0.057 | – |
| 1.06e-09 | – | COc1ccccc1-c1nccc(COc2ccccc2CC(Oc2ncnc3sc(C#CCCCc4ccccc4)c(-c4ccc(OCCN5CCN(C)CC5)c(Cl)c4C)c23)C(=O)O)n1 [Example 783, (2R)-2-{[(5Sa)-5-{3-chloro-2-methyl-4-[2-(4-methylpiperazin-1-yl)ethoxy]phenyl}-6-(5-phenylpent-1-yn-1-yl)thieno[2,3-d]pyrimidin-4-yl]oxy}-3-(2-{[2-(2-methoxyphenyl)pyrimidin-4-yl]methoxy}phenyl)propanoic acid] | 0.037 | – |
| – | 3.15e-09 | Cc1c(-c2c(-c3ccc(F)cc3)sc3ncnc(OC(Cc4ccccc4OCc4ccnc(-c5ccccc5CO)n4)C(=O)O)c23)ccc(OCCN(C)C)c1Cl [Example 832, (2R)-2-{[(5Sa)-5-{3-chloro-4-[2-(dimethylamino)ethoxy]-2-methylphenyl}-6-(4-fluorophenyl)thieno[2,3-d]pyrimidin-4-yl]oxy}-3-[2-({2-[2-(hydroxymethyl)phenyl]pyrimidin-4-yl}methoxy)phenyl]propanoic acid] | – | 0.004 |
| – | 2.9e-09 | COc1ccccc1-c1nccc(COc2ccccc2CC(Oc2ncnc3sc(-c4ccccc4F)c(-c4ccc(OCCN5CCN(C)CC5)c(Cl)c4C)c23)C(=O)O)n1 [Example 835, (2R)-2-{[(5Sa)-5-{3-chloro-2-methyl-4-[2-(4-methylpiperazin-1-yl)ethoxy]phenyl}-6-(2-fluorophenyl)thieno[2,3-d]pyrimidin-4-yl]oxy}-3-(2-{[2-(2-methoxyphenyl)pyrimidin-4-yl]methoxy}phenyl)propanoic acid] | – | 0.002 |
